Measured values from PubChem BioAssay (NCI).
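Step 1: Grow cells in 96-well plates. Step 2: Expose to compound for 48 hours at 5 concentrations. Step 3: Interpolate endpoints linearly; if unreached, use highest concentration. At the TGI there is no net growth.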

Legend:
Test in all cases: NCI tumour cell line growth inhibition, 48 h
[1] = tested on: T-47D breast
[2] = tested on: UACC-62 melanoma
[3] = tested on: SF-268 CNS
[4] = tested on: NCI-H23 lung
[5] = tested on: SF-295 CNS
[6] = tested on: MDA-N
[7] = tested on: M14 melanoma
[8] = tested on: CAKI-1 renal
[9] = tested on: SK-OV-3 ovarian
[10] = tested on: OVCAR-4 ovarian
[11] = tested on: HOP-62 NSCLC
[12] = tested on: SK-MEL-28 melanoma
[13] = tested on: MOLT-4 leukemia
[14] = tested on: SF-539 CNS
[15] = tested on: NCI-H522 lung
[16] = tested on: KM12 colon
[17] = tested on: K-562 leukemia
[18] = tested on: HCC-2998 colon
[19] = tested on: NCI-H226 lung
[20] = tested on: MDA-MB-231 breast
[21] = tested on: DU-145 prostate
[22] = tested on: UO-31 renal
[23] = tested on: HCT-15 colon
[24] = tested on: IGROV1 ovarian
[25] = tested on: NCI/ADR-RES ovarian
[26] = tested on: HCT-116 colon
[27] = tested on: UACC-257 melanoma
[28] = tested on: A549 NSCLC
[29] = tested on: HT29 colon
[30] = tested on: SK-MEL-5 melanoma
[31] = tested on: CCRF-CEM leukemia
[32] = tested on: MALME-3M melanoma
[33] = tested on: SNB-19 CNS
[34] = tested on: HL-60(TB) leukemia
[35] = tested on: 786-0 renal
[36] = tested on: A498 renal
[37] = tested on: BT-549 breast
[38] = tested on: COLO 205 colon
[39] = tested on: U251 CNS
[40] = tested on: MCF7 breast
[41] = tested on: SN12C renal
[42] = tested on: OVCAR-8 ovarian
[43] = tested on: SW-620 colon
[44] = tested on: OVCAR-5 ovarian
[45] = tested on: HS 578T breast
[46] = tested on: PC-3 prostate
[47] = tested on: OVCAR-3 ovarian
[48] = tested on: NCI-H460 lung
[49] = tested on: ACHN renal
[50] = tested on: EKVX NSCLC
[51] = tested on: LOX IMVI melanoma
[52] = tested on: SR leukemia
[53] = tested on: RPMI-8226 leukemia
[54] = tested on: MDA-MB-435
[55] = tested on: TK-10 renal
[56] = tested on: RXF 393 renal
[57] = tested on: SK-MEL-2 melanoma
[58] = tested on: HOP-92 NSCLC
[59] = tested on: SNB-75 CNS

Question: How did the TGI [1] turn out when COC(=O)c1c(O)c2c(c3c1OC(C)(C)CC3)OC(C)(C)CC2 was run?
Answer: 39.5 µM

Question: And the TGI [2]?
Answer: 40 µM

Question: And the TGI [3]?
Answer: 60.7 µM

Question: What about the TGI [4] of the same compound?
Answer: 43.4 µM

Question: And the TGI [5]?
Answer: 32.2 µM

Question: And the TGI [6]?
Answer: 51.9 µM

Question: What about the TGI [7] of the same compound?
Answer: 41 µM

Question: And the TGI [8]?
Answer: 53.9 µM

Question: And the TGI [9]?
Answer: 77.1 µM

Question: And the TGI [10]?
Answer: 97.7 µM

Question: And the TGI [11]?
Answer: 42.7 µM

Question: And the TGI [12]?
Answer: 68.8 µM

Question: What about the TGI [13] of the same compound?
Answer: 56.1 µM

Question: And the TGI [14]?
Answer: 36 µM

Question: And the TGI [15]?
Answer: 34.2 µM

Question: What about the TGI [16] of the same compound?
Answer: 31.6 µM

Question: What about the TGI [17] of the same compound?
Answer: 69.8 µM

Question: And the TGI [18]?
Answer: 31.2 µM

Question: And the TGI [19]?
Answer: 35.9 µM

Question: And the TGI [20]?
Answer: 30 µM

Question: What about the TGI [21] of the same compound?
Answer: 74.7 µM

Question: And the TGI [22]?
Answer: 37.4 µM

Question: And the TGI [23]?
Answer: 35.5 µM

Question: What about the TGI [24] of the same compound?
Answer: 42.8 µM

Question: And the TGI [25]?
Answer: 56.2 µM

Question: And the TGI [26]?
Answer: 30.4 µM

Question: And the TGI [27]?
Answer: 50.8 µM

Question: What about the TGI [28] of the same compound?
Answer: 42.7 µM

Question: And the TGI [29]?
Answer: 31.4 µM

Question: What about the TGI [30] of the same compound?
Answer: 28.2 µM

Question: And the TGI [31]?
Answer: 55.6 µM

Question: What about the TGI [32] of the same compound?
Answer: 20.9 µM

Question: And the TGI [33]?
Answer: 34.9 µM

Question: And the TGI [34]?
Answer: 40.3 µM

Question: And the TGI [35]?
Answer: 31.1 µM

Question: And the TGI [36]?
Answer: 34.4 µM

Question: And the TGI [37]?
Answer: 37.2 µM

Question: And the TGI [38]?
Answer: 28.2 µM

Question: What about the TGI [39] of the same compound?
Answer: 29.6 µM

Question: What about the TGI [40] of the same compound?
Answer: 33.1 µM

Question: What about the TGI [41] of the same compound?
Answer: 32.6 µM

Question: What about the TGI [42] of the same compound?
Answer: 33.3 µM

Question: And the TGI [43]?
Answer: 32.1 µM

Question: And the TGI [44]?
Answer: 35.2 µM

Question: And the TGI [45]?
Answer: 47.2 µM

Question: What about the TGI [46] of the same compound?
Answer: 35.7 µM

Question: And the TGI [47]?
Answer: 36.3 µM

Question: And the TGI [48]?
Answer: 50.6 µM

Question: What about the TGI [49] of the same compound?
Answer: 32.3 µM

Question: And the TGI [50]?
Answer: 45.8 µM

Question: How did the TGI [1] turn out when COc1cc(/C=C2/SC(c3ccccc3)N(c3cc(Cl)ccc3Cl)C2=O)cc(OC)c1OC (stereo unspecified) was run?
Answer: > 100 µM

Question: What about the TGI [2] of the same compound?
Answer: > 100 µM

Question: And the TGI [4]?
Answer: > 100 µM

Question: What about the TGI [5] of the same compound?
Answer: > 100 µM

Question: What about the TGI [6] of the same compound?
Answer: 37.6 µM

Question: And the TGI [7]?
Answer: > 100 µM

Question: And the TGI [8]?
Answer: 90.8 µM

Question: And the TGI [51]?
Answer: > 100 µM

Question: What about the TGI [9] of the same compound?
Answer: > 100 µM

Question: What about the TGI [10] of the same compound?
Answer: > 100 µM

Question: And the TGI [11]?
Answer: > 100 µM

Question: What about the TGI [12] of the same compound?
Answer: > 100 µM

Question: What about the TGI [13] of the same compound?
Answer: > 100 µM

Question: What about the TGI [52] of the same compound?
Answer: > 100 µM

Question: And the TGI [15]?
Answer: > 100 µM

Question: And the TGI [16]?
Answer: > 100 µM

Question: What about the TGI [17] of the same compound?
Answer: > 100 µM

Question: And the TGI [18]?
Answer: > 100 µM

Question: What about the TGI [19] of the same compound?
Answer: > 100 µM

Question: What about the TGI [20] of the same compound?
Answer: > 100 µM

Question: And the TGI [21]?
Answer: > 100 µM

Question: What about the TGI [22] of the same compound?
Answer: > 100 µM

Question: And the TGI [23]?
Answer: > 100 µM

Question: And the TGI [24]?
Answer: > 100 µM

Question: And the TGI [25]?
Answer: > 100 µM

Question: What about the TGI [26] of the same compound?
Answer: > 100 µM

Question: What about the TGI [27] of the same compound?
Answer: > 100 µM

Question: And the TGI [28]?
Answer: > 100 µM

Question: What about the TGI [53] of the same compound?
Answer: > 100 µM

Question: And the TGI [54]?
Answer: 61.1 µM

Question: And the TGI [29]?
Answer: > 100 µM

Question: What about the TGI [30] of the same compound?
Answer: > 100 µM

Question: And the TGI [31]?
Answer: > 100 µM

Question: And the TGI [32]?
Answer: > 100 µM

Question: What about the TGI [33] of the same compound?
Answer: > 100 µM

Question: What about the TGI [34] of the same compound?
Answer: > 100 µM

Question: What about the TGI [35] of the same compound?
Answer: > 100 µM

Question: What about the TGI [36] of the same compound?
Answer: > 100 µM

Question: And the TGI [55]?
Answer: > 100 µM

Question: And the TGI [37]?
Answer: > 100 µM

Question: What about the TGI [38] of the same compound?
Answer: > 100 µM

Question: And the TGI [39]?
Answer: > 100 µM

Question: What about the TGI [40] of the same compound?
Answer: > 100 µM

Question: What about the TGI [41] of the same compound?
Answer: > 100 µM

Question: What about the TGI [56] of the same compound?
Answer: > 100 µM

Question: And the TGI [57]?
Answer: > 100 µM

Question: What about the TGI [42] of the same compound?
Answer: > 100 µM

Question: And the TGI [58]?
Answer: > 100 µM

Question: And the TGI [43]?
Answer: > 100 µM

Question: What about the TGI [44] of the same compound?
Answer: > 100 µM

Question: What about the TGI [59] of the same compound?
Answer: > 100 µM

Question: What about the TGI [46] of the same compound?
Answer: > 100 µM

Question: What about the TGI [47] of the same compound?
Answer: > 100 µM

Question: And the TGI [48]?
Answer: > 100 µM

Question: What about the TGI [49] of the same compound?
Answer: > 100 µM

Question: And the TGI [50]?
Answer: > 100 µM
